Calls of active or inactive are those of the source. No cut-off for these calls is given here.

In ChEMBL document CHEMBL2086307, “Design, synthesis and identification of a new class of triarylmethyl amine compounds as inhibitors of apolipoprotein E production” (2012) one finds inhibition data, which are given here for 41 compounds.

One assay deals with CCF-STTG1. As to the kind of experiment: Inhibition of apolipoprotein E production in human CCF-STTG1 cells at 10 uM after 24 hrs by ELISA relative to vehicle-treated control. Format: functional.
Conditions: not given
What is called inhibition is the relative decrease from the control value, in per cent. Turning to `c1ccc(C(c2ccccc2)(c2ccccc2)N2CCNCC2)cc1`, the inhibition result is “Active”. Still for that read-out and setting: the value for `O=C(c1ccccc1)c1ccc(O)cc1` was “Active”; that for `COc1ccc(C(c2ccccc2)(c2ccccc2)N2CCNCC2)cc1` was “Active”; that for `COc1ccc(C(c2ccccc2)(c2ccccc2)N(C)C)cc1` was “Active”.

As to `CCCCN(CCCC)C(c1ccccc1)(c1ccccc1)c1ccccc1`, the inhibition result was “Active”. Still for that read-out and setting: the value for `CN(C)C(c1ccccc1)(c1ccccc1)c1ccc2ccccc2c1` was “Active”; that for `c1ccc(C(c2ccccc2)(c2ccccc2)N2CCCCC2)cc1` was “Active”. Still for that read-out and setting: the value for `c1ccc(CN(Cc2ccccc2)C(c2ccccc2)(c2ccccc2)c2ccccc2)cc1` was “Active”. Same read-out and setting: with `CCCCN(CCCC)C(c1ccccc1)(c1ccccc1)c1ccc2ccccc2c1` the entry was “Active”; with `CCCCN(CCCC)C(c1ccccc1)(c1ccccc1)c1ccc(OC)cc1`, “Active”; with `COc1ccc(C(c2ccccc2)(c2ccccc2)N2CCCCC2)cc1`, “Active”. With `COc1ccc(C(NC2CCCCC2)(c2ccccc2)c2ccccc2)cc1`, the inhibition result is “Active”. Same read-out and setting: the value for `CN(C)C(c1ccccc1)(c1ccccc1)c1ccccc1` was “Active”; that for `COc1ccc(C(NCc2ccccc2)(c2ccccc2)c2ccccc2)cc1` was “Active”; that for `COc1ccc(C(c2ccccc2)(c2ccccc2)N2CCOCC2)cc1` was “Active”. For the compound `O=C(c1ccccc1)c1ccc(OCc2ccccc2)cc1`, the inhibition result was “Active”. Still for that read-out and setting: with `c1ccc(CNC(c2ccccc2)(c2ccccc2)c2ccccc2)cc1` the entry was “Active”.

In the case of `COc1ccc(C(Nc2ccccc2)(c2ccccc2)c2ccccc2)cc1`, the inhibition result is “Active”. The same measure, in the same setting: with `c1ccc(C(NC2CCCCC2)(c2ccccc2)c2ccccc2)cc1` the entry was “Active”; with `CCN(CC)C(c1ccccc1)(c1ccccc1)c1ccccc1`, “Active”. Still for that read-out and setting: the value for `COc1ccc(C(c2ccccc2)(c2ccccc2)N2CCCC2)cc1` was “Active”; that for `O=C(c1ccccc1)c1ccccc1` was “Active”; that for `CC(NC(c1ccccc1)(c1ccccc1)c1ccccc1)c1ccccc1` (racemic) was “Active”.

`CC(NC(c1ccccc1)(c1ccccc1)c1ccc2ccccc2c1)c1ccccc1` (racemic): the inhibition result was “Active”.

As to `c1ccc(C(c2ccccc2)(c2ccc3ccccc3c2)N2CCCCC2)cc1`, the inhibition entry is “Active”. On the same count and under the same terms, with `O=C(c1ccccc1)C(O)c1ccccc1` (stereo unspecified) the entry was “Active”; with `c1ccc(C(c2ccccc2)(c2ccccc2)N2CCCC2)cc1`, “Active”; with `CC(C)CNC(c1ccccc1)(c1ccccc1)c1ccccc1`, “Active”.

`CCN(CC)C(c1ccccc1)(c1ccccc1)c1ccc(OC)cc1`: the inhibition result is “Active”. Take `CCC(C)NC(c1ccccc1)(c1ccccc1)c1ccc(OC)cc1` (stereo unspecified): the inhibition entry was “Active”. `c1ccc(NC(c2ccccc2)(c2ccccc2)c2ccccc2)cc1`: the inhibition entry was “Active”. `CCN(CC)C(c1ccccc1)(c1ccccc1)c1ccc2ccccc2c1`: the inhibition result is “Active”.

As for `CCC(C)NC(c1ccccc1)(c1ccccc1)c1ccccc1` (stereo unspecified), the inhibition result is “Active”. Same read-out and setting: with `COc1ccc(C(NCC(C)C)(c2ccccc2)c2ccccc2)cc1` the entry was “Active”; with `c1ccc(C(c2ccccc2)(c2ccccc2)N2CCOCC2)cc1`, “Active”. As to `c1ccc(C(NC2CCCCC2)(c2ccccc2)c2ccc3ccccc3c2)cc1`, the inhibition entry is “Active”.

The same assay, now with this note: CCF-STTG1, 24 h.
`CC(C)CNC(c1ccccc1)(c1ccccc1)c1ccc2ccccc2c1` had an inhibition at 10 µM of 50%.

Compound `c1ccc(C(NCC2CCCCC2)(c2ccccc2)c2ccccc2)cc1` yielded an inhibition at 10 µM of 51%. In the case of `CCC(C)NC(c1ccccc1)(c1ccccc1)c1ccc2ccccc2c1` (stereo unspecified), the inhibition at 10 µM was 66%. `c1ccc(C(c2ccccc2)(c2ccc3ccccc3c2)N2CCOCC2)cc1` returned an inhibition at 10 µM of 49%.

On to `c1ccc(C(c2ccccc2)(c2ccc3ccccc3c2)N2CCCC2)cc1`, for which the inhibition at 10 µM was determined as 46%.
